The structures appear in SMILES notation. Entries after “also recorded” stand apart in the source; their conditions may differ.

As usually defined, the Kd is the concentration at which binding is half-saturated.

In one series the test system is photoreceptors. The experiment in a line: Electron microscopy of photoreceptor morphology in wild type mice after PR3. In kind it is in vivo. The conditions noted are these: 10 mg/kg i.p. for 3 consecutive days from P11, EM at P14. The procedure: FIG. 2C compares electron microscope micrographs of retinal sections of wild type mice treated with 10 mg/kg PR3 or DMSO vehicle. Compared to controls, PR3 retinas have arrested inner and outer segment development and less compact heterochromatin in the ONL. Scale bars represent 10 μm (top) and 2 μm (bottom).
Electron microscopy (EM) was used to perform an ultrastructural analysis of photoreceptor morphology after PR3 treatment. Wild type mice were intraperitoneally injected with vehicle or PR3 for 3 consecutive days starting at P11. At P14, 24 h after the third injection, the mice were euthanized and processed their retinas for EM. Photoreceptor outer segments begin to form during the second and third postnatal week; genetic loss-of-function mutations in Nr2e3 lead to an impairment in rod outer segment formation.
(§1) Photoregulin3 was identified by searching previous small molecule screens with SciFinder and PubChem for Nr2e3 interacting molecules. It was initially obtained from ChemDiv and then synthesized and purified in large quantities in the lab after initial screening. For in vivo experiments, mice were injected intraperitoneally with PR3 dissolved in DMSO at 10 mg/kg.
Mice were euthanized by CO2, and then perfused with 0.9% saline followed by 4% glutaraldehyde in 0.1 M sodium cacodylate buffer. Eye cups were fixed in 4% glutaraldehyde in 0.1 M sodium cacodylate buffer, washed with 0.1 M sodium cacodylate buffer, and then post-fixed in 2% osmium tetroxide. After fixation, eye cups were washed with water, dehydrated through a graded series of ethanol, incubated in propylene oxide and then epon araidite, polymerized overnight at 60° C., and then sectioned at a thickness of 70 nm. Images were obtained using a JEOL JEM-1230 electron microscope.

Another series relates to rod photoreceptor genes. The experiment in a line: RNA sequencing of retinas of wild type mice after intraperitoneal PR3. In kind it is in vivo. Conditions: 10 mg/kg i.p. at P12, retinas collected 24 h later. The protocol:
Nr2e3 signaling is important for rod photoreceptor cell fate, development and maturation, and maintenance of expression. To determine the effect of PR3 treatment on gene expression in postmitotic retinal cells, wild type mice were systemically treated (intraperitoneal injection) with PR3 or vehicle at P12. At P13, 24 h after the injection, the retinas were collected for global transcriptome analysis by RNA sequencing.
as §1
RNA from retinas was isolated using TRIzol (Invitrogen) and total RNA integrity was checking using an Agilent 4200 TapeStation and quantified using a Trinean DropSense96 spectrophotometer. RNA-seq libraries were prepared from total RNA using the TruSeq RNA Sample Prep kit (Illumina) and a Sciclone NGSx Workstation (PerkinElmer). Library size distributions were validated using an Agilent 4200 TapeStation. Additional Library quality control, blending of pooled indexed libraries, and cluster optimization were performed using Life Technologies' Invitrogen Qubit Fluorometer. RNA-seq libraries were pooled (4-plex) and clustered onto a flow cell lane. Sequencing was performed using an Illumina HiSeq 2500 in rapid mode employing a paired-end, 50 base read length (PE50) sequencing strategy.

The next series concerns the target T1, Nr2e3 (Homo sapiens, UniProt Q9Y5X4).
T1 construct: Nr2e3 protein (aa 90-410) was expressed; His8 (N, cleaved yes); MBP (N, cleaved yes); host or cells: E. coli BL21 (DE3)
The experiment in a line: Isothermal titration calorimetry (ITC) of PR3 binding to Nr2e3. The conditions noted are these: one site model, estimated. The protocol:
FIG. 1F illustrates an isothermal titration calorimetric (ITC) study of PR3 binding to Nr2e3. Nr2e3 protein was expressed as a fusion protein from the expression vector pVP16. The fusion protein was incubated with TEV overnight at 4° C. and then the His8-MBP tags were separated from Nr2e3 by ion exchange chromatography. For isothermal titration calorimetry, […] was injected into […] in a MicroCal ITC-200 (Malvern).
To confirm a direct Nr2e3-PR3 interaction, isothermal titration calorimetry (ITC) was used.
Nr2e3 protein (aa 90-410) was expressed as a His8-MBP-TEV fusion protein from the expression vector pVP16 (DNASU Plasmid ID: HsCD00084154). E. coli BL21 (DE3) cells were grown to an OD600 of 1, and then induced with 0.2 mM IPTG at 16° C. overnight. Cells were harvested, resuspended in extract buffer (20 mM Tris pH 8, 200 mM NaCl, 10% glycerol, 5 mM 2-mercaptoethanol, and saturated PMSF diluted 1:1,000), and then lysed by sonication on ice. Lysates were centrifuged at 4° C. and the supernatant was loaded onto an equilibrated column containing 5 mL of Ni-NTA agarose (Qiagen). […] For isothermal titration calorimetry, 100 μM PR3 was injected into 20 μM Nr2e3 in 10 mM sodium phosphate buffer pH 8 with 50 mM NaCl and 0.5% DMSO in a MicroCal ITC-200 (Malvern) and the data was analyzed with Origin 7.0 software.

T1 sequence (Q9Y5X4 90-410): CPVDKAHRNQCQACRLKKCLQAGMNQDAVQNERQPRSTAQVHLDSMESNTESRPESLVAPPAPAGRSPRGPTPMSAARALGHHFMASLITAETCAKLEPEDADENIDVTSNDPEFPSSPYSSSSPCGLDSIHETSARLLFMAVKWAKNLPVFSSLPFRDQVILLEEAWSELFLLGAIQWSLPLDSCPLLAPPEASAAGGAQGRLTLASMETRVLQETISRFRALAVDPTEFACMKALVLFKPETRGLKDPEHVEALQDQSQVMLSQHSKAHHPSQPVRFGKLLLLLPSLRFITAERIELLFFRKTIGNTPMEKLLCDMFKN

`COc1cc2nc(CN3CC=C(c4ccccc4)CC3)nc(O)c2cc1OC` [PR3]: in the series with photoreceptors, the “heterochromatin of rod nuclei (EM)” value is “smaller patches of densely packed heterochromatin compared to DMSO retinas”, the “photoreceptor apoptosis / cell death in ONL nuclei (EM)” value is listed as “not due to an increase in cell death” and the “photoreceptor outer segment development (EM)” value is recorded as “prevented outer segment development”. In the series with rod photoreceptor genes, the “cone gene expression (RNA sequencing)” value is “large and global increases in cone gene expression were not observed”; the “toxicity to retinal cells (cell death and cell stress genes, RNA sequencing)” value was “not toxic to retinal cells”. Moreover, in the series on rod photoreceptor genes (10 mg/kg), the “rod photoreceptor gene expression (RNA sequencing)” value is on record as “robust reduction in rod photoreceptor genes; also recorded: decrease in most rod photoreceptor-specific transcripts”. In addition, the equilibrium dissociation constant (Kd) on Nr2e3 was ~67 µM.

These data come from patent US20200368234A1, “PHOTORECEPTOR GENE MODULATOR PHOTOREGULIN 3 FOR TREATMENT OF RETINAL DISEASE” (University of Washington, priority 2017, published 2020).
